According to PubChem BioAssay (NCI):
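Cells were grown in 96-well plates and exposed to each compound for 48 hours at five concentrations; endpoints were interpolated linearly between bracketing concentrations, or set to the highest concentration if not reached. GI50 marks 50% less growth. TGI marks complete inhibition of growth.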

Experiments:
Test in all cases: DTP human tumour cell line panel, 48 h
[1] = tested on: BT-549 breast
[2] = tested on: SNB-19 CNS
[3] = tested on: UACC-257 melanoma
[4] = tested on: EKVX NSCLC
[5] = tested on: COLO 205 colon
[6] = tested on: SN12C renal
[7] = tested on: A498 renal
[8] = tested on: SF-268 CNS
[9] = tested on: NCI-H23 lung
[10] = tested on: SF-539 CNS

| SMILES | GI50 [1] | TGI [1] | GI50 [2] | TGI [2] | GI50 [3] | TGI [3] | GI50 [4] | TGI [4] | GI50 [5] | TGI [5] | GI50 [6] | TGI [6] | GI50 [7] | TGI [7] | GI50 [8] | TGI [8] | GI50 [9] | TGI [9] | GI50 [10] | TGI [10] |
| --- | --- | --- | --- | --- | --- | --- | --- | --- | --- | --- | --- | --- | --- | --- | --- | --- | --- | --- | --- | --- |
| Nc1c(C(=O)Nc2cccc3ccccc23)sc2nc3c(cc12)CCCCC3 | 0.549 µM | 3.75 µM | 0.662 µM | > 50 µM | 17.1 µM | > 50 µM | 1.35 µM | > 50 µM | 1.46 µM | 4.99 µM | 2.26 µM | > 50 µM | 0.646 µM | 25.8 µM | 2.82 µM | > 50 µM | 1.78 µM | > 50 µM | 0.458 µM | > 50 µM |
| O=C1NC(=O)[C@H]2C3C=CC([C@@H]12)[C@@H]1C(=O)NC(=O)[C@H]31 | – | > 100 µM | – | > 100 µM | – | > 100 µM | – | > 100 µM | – | > 100 µM | – | > 100 µM | – | – | – | > 100 µM | – | > 100 µM | – | > 100 µM |
| N#C/C(=C\c1ccc(Br)cc1)n1nnc2cc(F)c(F)cc21 | 1.74 µM | 4.51 µM | 1.64 µM | 3.07 µM | – | – | – | – | 1.99 µM | 4.04 µM | – | – | 1.74 µM | 3.2 µM | – | – | 1.76 µM | 3.44 µM | 1.86 µM | 3.39 µM |
| Cc1ccc(-c2nc3nc(-c4ccc(Cl)cc4)nc(N4CCCNCC4)c3o2)cc1 | 1.9 µM | 3.61 µM | 1.7 µM | 3.12 µM | 1.91 µM | 3.65 µM | 1.75 µM | 3.27 µM | 2.08 µM | 4.26 µM | 1.66 µM | 3.15 µM | 1.88 µM | 3.56 µM | 1.92 µM | 3.97 µM | 1.83 µM | 3.41 µM | 1.71 µM | 3.12 µM |
| Nc1nc(F)nc2c1ncn2C1OC(COP(=O)(O)O)C(O)C1O (stereo not given) | – | 302 µM | – | 1000 µM | – | 813 µM | – | 406 µM | – | 610 µM | – | 145 µM | – | 694 µM | – | 874 µM | – | 243 µM | – | 859 µM |
| C=C1C(=O)O[C@H]2[C@H]1CC/C(COC(=O)N[C@@H](Cc1c[nH]c3ccccc13)C(=O)OC)=C\CC[C@@]1(C)O[C@@H]21 | 1.84 µM | 3.79 µM | 2.48 µM | 7.52 µM | 1.86 µM | 3.97 µM | 1.78 µM | 4.43 µM | 1.73 µM | 3.4 µM | 1.37 µM | 3.1 µM | 10.3 µM | 22.3 µM | 2.25 µM | 6.67 µM | 1.84 µM | 4.59 µM | 1.45 µM | 2.92 µM |
| CC(=O)O[C@H]1C(=O)[C@@]2(C)[C@H]([C@H](OC(=O)c3ccccc3)[C@]3(O)C[C@H](OC(=O)[C@H](OC(=O)CCC(=O)OC4CCC(S/N=C(N)/N=C(\N)N(C)C)CC4)[C@@H](NC(=O)c4ccccc4)c4ccccc4)C(C)=C1C3(C)C)[C@]1(OC(C)=O)CO[C@@H]1C[C@@H]2O (stereo not given in full) | 0.0219 µM | > 50 µM | 0.0205 µM | > 50 µM | 0.0846 µM | > 50 µM | 0.0269 µM | > 50 µM | 0.00952 µM | 0.0406 µM | 0.0325 µM | > 50 µM | 0.0148 µM | > 50 µM | 0.0212 µM | > 50 µM | 0.0166 µM | > 50 µM | 0.00847 µM | 0.0255 µM |
| COc1ccc2c(c1)C(=O)c1c-2c(N2CCN(C(=O)CN(C)C)CC2)nc2ccccc12 | 14.5 µM | 33.5 µM | 16.6 µM | 35.9 µM | 12.1 µM | 30.3 µM | 17.7 µM | 41.5 µM | 13.3 µM | 28.1 µM | 13 µM | 27.9 µM | 15.4 µM | 31.8 µM | 17.3 µM | 44.3 µM | – | – | 15.1 µM | 30.3 µM |
| O=C1CN2CCC1C/C2=C\c1ccnc2c(Cl)cccc12 (stereo not given) | > 100 µM | > 100 µM | > 100 µM | > 100 µM | 59.7 µM | > 100 µM | 33 µM | > 100 µM | > 100 µM | > 100 µM | > 100 µM | > 100 µM | 69.8 µM | > 100 µM | > 100 µM | > 100 µM | 57 µM | > 100 µM | > 100 µM | > 100 µM |
| CCOC(=O)CCc1c(C)c2ccc(O)cc2oc1=O | – | > 100 µM | – | > 100 µM | – | > 100 µM | – | > 100 µM | – | > 100 µM | – | > 100 µM | – | > 100 µM | – | > 100 µM | – | > 100 µM | – | > 100 µM |
| Cc1cc(Nc2nc(N3CCOCC3)nc3ccccc23)n[nH]1 | 7.88 µM | 46.7 µM | 26 µM | > 100 µM | 87.7 µM | > 100 µM | – | – | 3.09 µM | 11.9 µM | 4.23 µM | > 100 µM | 1.01 µM | 5.33 µM | 6.21 µM | 35.2 µM | – | – | 4.27 µM | 16.6 µM |
| COc1cc(C(=O)O)ccc1NC(=O)[C@@H]1N[C@@H](CC(C)(C)C)[C@](C#N)(c2ccc(Cl)cc2F)[C@H]1c1cccc(Cl)c1F | 2.76 µM | 7.11 µM | 5.6 µM | 31.2 µM | 0.145 µM | 1.83 µM | 6.51 µM | 24 µM | 3.1 µM | 12 µM | 4.27 µM | > 41.9 µM | 0.132 µM | 2.79 µM | 4.62 µM | 30.5 µM | 5.47 µM | 19.5 µM | 3.63 µM | 11.5 µM |
| CNC(=O)c1ccc(Nc2nc(OC3CCCC3)c3c(-c4ccc5nc(C)oc5c4)c[nH]c3n2)c(OC)c1 | 2.04 µM | > 100 µM | 10 µM | > 100 µM | > 100 µM | > 100 µM | > 100 µM | > 100 µM | 0.208 µM | > 100 µM | 1.32 µM | > 100 µM | 0.547 µM | > 100 µM | > 47.2 µM | > 100 µM | 4.55 µM | > 100 µM | 0.332 µM | > 100 µM |
